Experiments:
[1] = tested on: CA1 pyramidal neurons; assay: Whole cell recordings (mEPSC, AMPA/NMDA) in CA1 pyramidal neurons of injected mice; assay type: in vivo; details: 30 mg/kg i.p., 2 weeks
Experimental: Electrophysiology. Transverse [for Schaffer collateral (SC) input studies] or horizontal [for temporammonic (TA) input studies] hippocampal slices (400-μm thick) were prepared from adult mice. Slices were made using ice-cold dissection buffer (in mM: 212.7 sucrose, 2.6KCl, 1.23NaH2PO4, 10 dextrose, 3MgCl2 and 1CaCl2; 5% CO2/95% O2), and recordings were done in a submersion-type chamber perfused with artificial cerebrospinal fluid (ACSF, in mM: 124NaCl, 5KCl, 1.25NaH2PO4, 26NaHCO3, 10 dextrose, 1.5MgCl2, and 2.5CaCl2; 5% CO2/95% O2, 29.5-30.5° C., 2 ml/min). For field potential recordings, synaptic responses were evoked using 0.2 ms duration pulses delivered through a bipolar glass stimulating electrode at 0.0333 Hz. A train of TBS consisted of a burst of 4 pulses at 100 Hz repeated 10 times at 5 Hz. For 4× TBS, 4 trains of TBS were given at 10 sec inter-train-intervals. […] Recording was initiated 2-3 min after break-in, and each cell was recorded for 10-15 min to collect enough mEPSCs for analysis. […] Cells were held at −70 mV, and the recorded mEPSC data were digitized at 10 kHz with a data acquisition board (National Instruments, Austin, Tex.) and acquired through custom-made programs using the Igor Pro software (WaveMetrics, Lake Oswego, Oreg.). […] Only about 4% of the total recorded cells (at most 1 cell per experimental group) were excluded due to negative correlation between mEPSC rise and amplitude. One hundred consecutive mEPSCs that met the rise time criteria were analyzed from each cell. AMPAR- and NMDAR-mediated currents were measured at −70 and +40 mV, respectively. AMPAR mediated EPSC amplitudes were measured at the peak of the current at −70 mV. NMDAR mediated EPSC amplitudes were measured 100 ms after the stimulation artifact. […]
To verify that the increase in dendritic spine density and synaptic proteins reflects an increase in functional synapses, we measured miniature excitatory postsynaptic currents (mEPSCs) from CA1 neurons in hippocampal slices following in vivo administration of BTA-EG4 (30 mg/kg, i.p.) for 2 weeks.

[2] = Fear conditioning, wild-type mice; assay type: in vivo; details: 30 mg/kg daily for 2 weeks
Experimental: Fear conditioning. Before initiating fear-conditioning tests, wild-type mice were injected daily with BTA-EG4 or vehicle for 2 weeks (n=8/group). Mice were subsequently trained by exposure to a conditioning box (context) for 3 min before administering a tone (18 s) and footshock (2 s), which were repeated twice at 1 min intervals. We performed the contextual test 24 h after training by re-exposing the mice to the conditioning context. A measurement of freezing behavior was recorded every minute for 3 min inside of the conditioning box. The cued test was conducted 3 h following the contextual test. Following a 3 min reexposure to the conditioning box, a tone (18 s) was administered and freezing behavior was measured for 1 min.

[3] = tested on: Ras; assay: Ras activity assay, brain lysate of 3× Tg AD mice; assay type: in vivo; details: cortex and hippocampus, 30 mg/kg daily, 2 weeks
Experimental: Ras activity assay. Brain lysate from 3× Tg AD mice at 6-10 months or 13-16 months of age was homogenized with Ral buffer (25 mM Tris-HCl, pH 7.4, 250 mM NaCl, 0.5% NP40, 1.25 mM MgCl2, and 5% glycerol) to measure active Ras levels. Briefly, brain lysate was incubated with GST-Raf-RBD purified protein coupled with GLUTATHIONE SEPHAROSE™ (Amersham) overnight at 4° C. After 24 h, pellets were washed with Ral buffer and western blotting was conducted with anti-Ras.
BTA-EG4 injected 6-10 month old 3× Tg AD mice had increased Ras activity. […] Therefore, we examined whether the same mechanism is shared for improving dendritic spine density in the 3× Tg AD mouse model. To test this, 6-10 month old or 13-16 month old 3× Tg AD mice were injected with 30 mg/kg BTA-EG4 or vehicle daily for two weeks. After two weeks, mouse brains were homogenized with Ral buffer and levels of active Ras and RasGRF1 ([…]) were measured via Western blot. […] However, Ras activity was unchanged in the cortex and hippocampus of 13-16 month old mice (FIGS. 12E-12H, n=2 brains/group).

[4] = Morris water maze, wild-type mice; assay type: in vivo, wild-type (B6) mice
Description: Morris water maze. To examine the effects of BTA-EG4 on cognitive performance, we injected wild-type (B6) mice with BTA-EG4 daily for one week, and then began behavior testing. We continued daily injections for another week, for a total treatment course of two weeks. The Morris water maze task included training mice to locate a submerged, hidden platform using extramaze visuospatial cues. This system consists of a large, white circular pool with a Plexiglas platform painted white and submerged below the surface of the water, made opaque by the addition of white non-toxic paint. During training, the platform was hidden 14 inches from the side wall in one quadrant of the maze. The animals were gently placed at random into one of the four quadrants, separated by 90°, and facing the wall. The time required (latency) to locate the hidden platform was recorded by a blinded observer and tracked using TOPSCAN, and was limited to 90 sec. Animals failing to find the platform within 90 sec were assisted to the platform. Animals were allowed to remain on the platform for 15 sec on the first trial and 10 sec on subsequent trials. 24 hrs after the final learning trial, a probe trial of 90 sec was given. We recorded the percentage of time spent in the quadrant where the platform was previously located. As a control experiment, we tested motor impairment or visual discriminative ability. The animals were required to locate a clearly visible black platform (placed in a different location), raised above the water surface, at least 12 hrs after the last trial.

[5] = 30 mg/kg i.p., probe trial day 5

Which AMPAR/NMDAR ratio [1] does the source give for BTA-EG4 here?
Its AMPAR/NMDAR ratio is “did not observe a change”.

What about the “average mEPSC amplitude” value [1] of the same substance?
Its value is “no significant difference”.

What about the “frequency of mEPSCs” value [1] of the same substance?
Its value is “significantly increased”.

And the “freezing, contextual test” value [2]?
Its value is “significantly increased”.

What about the “freezing, cued test” value [2] of the same substance?
The value was “significantly increased”.

What about the Ras activity ([3]; 6-10 months) of the same substance?
The Ras activity was “increased”.

And the Ras activity ([3]; 13-16 months)?
Its Ras activity is “unchanged”.

What about the “escape latency during training” value ([4]; 30 mg/kg i.p. daily) of the same substance?
Its value is “significantly reduced”.

What about the “rate of platform crossing” value [4, 5] of the same substance?
The value was “significantly higher rate”.

And the “time spent in the target quadrant” value [4, 5]?
Its value is “spent more time”.

And the “path length to the escape platform” value ([4]; 30 mg/kg i.p., training trials)?
Its value is “no difference”.

What about the swim speed ([4]; 30 mg/kg i.p., CTRL=117±3.1 mm/s, p<0.01) of the same substance?
Its swim speed is 130±3.6 mm/s.

Source: patent US20160000762A1, “IMPROVING COGNITIVE FUNCTION” (THE REGENTS OF THE UNIVERSITY OF CALIFORNIA, priority 2013, published 2016)
